Tests used:
[1] = tested on: Chung model of neuropathic rats; assay: Tactile allodynia in the Chung model of peripheral neuropathy; assay type: in vivo, rat; details: given alone, FIG. 2
Experimental: Male Sprague-Dawley rats weighing between 200-225 g were anesthetized with halothane (1-3% in a mixture of 70% air and 30% oxygen) and their body temperature controlled during anesthesia through use of a homeothermic blanket. A 2-cm dorsal midline incision was then made at the L5 and L6 level and the para-vertibral muscle groups retracted bilaterally. L5 and L6 spinal nerves were then be exposed, isolated, and tightly ligated with 6-0 silk suture. A sham operation was performed exposing the contralateral L5 and L6 spinal nerves as a negative control.
Tactile Allodynia: Rats were transferred to an elevated testing cage with a wire mesh floor and allowed to acclimate for five to ten minutes. A series of Semmes-Weinstein monofilaments were applied to the plantar surface of the hindpaw to determine the animal's withdrawal threshold. […] This procedure was repeated with subsequent lesser filaments until there was no response and the lightest filament that elicited a response was recorded. […] For each animal, three measurements were made at every time point to produce an average withdrawal threshold determination. Tests were performed prior to and at 1, 2, and 24 hrs post drug administration. Tactile allodynia and mechanical hyperalgesia tests were conducted concurrently.

chronic pain = details: clinical trials; 15-20% of patients treated with placebo showed effectiveness; cited from earlier work

Structure (SMILES)	tactile antiallodynia effect (withdrawal threshold) ([1]; 1.25 mg/kg p.o.)	patient population that showed effectiveness (chronic pain)	tactile antiallodynia effect (withdrawal threshold) ([1]; 25 mg/kg s.c.)
NC(=O)NN=Cc1ccc(Oc2ccc(F)cc2)cc1 [Co 102862, 4-(4′-fluoro-phenoxy)benzaldehyde semicarbazone]	moderate antiallodynia effect	–	–
NCC1(CC(=O)O)CCCCC1 [gabapentin, 1-(aminomethyl)cyclohexaneacetic acid]	–	less than 50%	minimum or no effect

Reference: patent US7393872B2, “Sodium channel blocker compositions and the use thereof” (Euro-Celtique S.A., priority 1999, dated 2008)
